Common to all, as to assay type: in vivo
Data set [1] has as its system German cockroaches (Blattela germanica). The data set can be described thus: Biological Test 15: repellency, treated sheet shelter. As to conditions: 1.0 ml of 0.1% by weight acetone solution on filter paper; 24 hours. The procedure: The obtained sheet was folded as to be a triangular tube where one side of the triangle-shaped base was 3 cm.
In a plastic cup (650 ml volume), said triangular tube was placed as a shelter (cockroach hiding residence). Ten adult German cockroaches (Blattela germanica) were placed in said plastic cup together with food and water and then observed the number of cockroaches in the shelter 24 hours later (two replicate). Repellency (%) was calculated by the following formula: [formula]

In data set [2] the test system is webbing clothes moth (Tineola bisselliella). The data set can be described thus: Biological Test 12: topical application to larvae of webbing clothes moth, mortality and fabric damage. The procedure:
Each of the present compounds diluted with acetone to a predetermined concentration was applied to ten middle instar larvae of webbing clothes moth (Tineola bisselliella) at the central part of the back so as to give the active ingredient in a dose of 3 μg/insect. A wool muslin fabric (2 cm×2 cm in size) was given to the webbing clothes moths as the food. After 7 days, the mortality and the degree of damage of the wool muslin fabric by the moths were examined (two replicate).

For data set [3], the system named is tobacco cutworm (Spodoptera litura). The data set is described as follows: Biological Test 1: mortality of larvae on impregnated artificial bait. As to conditions: 144 h, read-out: mortality of the larvae. The protocol: Emulsifiable concentrates were prepared for each of the present compounds according to the formulation example 1. Thirteen grams of artificial bait for tobacco cutworm (Spodoptera litura) were placed in a polyethylene cup (diameter: 11 cm) and impregnated with 2 ml of the 500 ppm emulsion prepared by diluting the emulsifiable concentrates with water. Ten 4-instar larvae of Spodoptera litura were put in the polyethylene cup. After 6 days, the mortality of the larvae was examined.

Data set [4] deals with houseflies (Musca domestica). The data set can be described thus: Biological Test 16: topical application of compound (1) with piperonyl butoxide, mortality. As to conditions: after 24 hours. The protocol:
The combination rate of piperonyl butoxide to the present compound was 0, 2, 4, 8 and 16 times. The mixture was dissolved in acetone. The acetone solution (0.5 μL) was applied to 10 female houseflies (Musca domestica) at the back thoracic region. After 24 hours, the number of dead insects was observed (2 repetition) and mortality was calculated.

`Cc1ccc(COC(=O)[C@@H]2[C@H](/C=C(\Cl)C(F)(F)F)C2(C)C)o1` (relative stereo) [Compound (1), 5-methyl-2-furfuryl (1RS,cis)-3-(Z-2-chloro-3,3,3-trifluoroprop-1-enyl)-2,2-dimethylcyclopropanecarboxylate]: the “Repellency (%)” value in data set [1] turned out to be 100%. The “degree of damage of the wool muslin fabric” value in data set [2] (3 μg/insect, after 7 days) is “no damage”. Besides, the mortality at 0.003 mg in data set [2] (Tineola bisselliella, 168 h) came to 100%. Besides, the mortality at 500 µg/mL in data set [3] came out at 100%. Besides, the “Mortality (%)” value in data set [4] (compound (1) 0.5 μg/female, piperonyl butoxide 0) is 30%; in data set [4] (compound (1) 0.5 + piperonyl butoxide 2.0 μg/female), 100%; in data set [4] (compound (1) 0.5 + piperonyl butoxide 4.0 μg/female) it was 100%; in data set [4] (compound (1) 0.5 + piperonyl butoxide 8.0 μg/female), 100%.

(Values after patent publication US6048892A, “Ester compound pesticide containing thereof” (Sumitomo Chemical Company, Limited, priority 1999, dated 2000).)
